These results are taken from PMC12102759 (Protein Science : A Publication of the Protein Society, 2025).

Like-named read-outs stand apart in the source and are kept apart here.

The assay has as its system PABPC1 PABC. Type of assay: binding, human. Particulars: DMS-BM library, bait PABPC1 PABC, row aa = residue at this position; for DMS-derived PSSM value (averaged), position S13 / DMS-derived PSSM value, position S15: S = wild type; for DMS-derived PSSM value, position K9: K = wild type.
The mark [1] stands for this setting: prey ATXN2, TLNPNAKEFNPRSF(averaged) over the two overlapping peptides.
The mark [2] stands for this setting: prey ATXN2, TLNPNAKEFNPRSF(averaged) over the two overlapping peptides, F = wild type.
[3] abbreviates: prey ATXN2, TLNPNAKEFNPRSF(averaged) over the two overlapping peptides, N = wild type.
[4] abbreviates: prey ATXN2, peptide TLNPNAKEFNPRSFSQ, L = wild type.
Where [5] appears, read: prey ATXN2, TLNPNAKEFNPRSF(averaged) over the two overlapping peptides, P = wild type.
[6] abbreviates: prey ATXN2, peptide KSTLNPNAKEFNPRSF
[7] abbreviates: prey ATXN2, TLNPNAKEFNPRSF(averaged) over the two overlapping peptides, T = wild type.
Where [8] appears, read: prey ATXN2, peptide KSTLNPNAKEFNPRSF, P = wild type.
The mark [9] stands for this setting: prey ATXN2, peptide TLNPNAKEFNPRSFSQ
[10] abbreviates: prey ATXN2, peptide TLNPNAKEFNPRSFSQ, N = wild type.
The mark [11] stands for this setting: prey ATXN2, peptide TLNPNAKEFNPRSFSQ, P = wild type.
Setting [12] is: prey ATXN2, peptide KSTLNPNAKEFNPRSF, N = wild type.
Where [13] appears, read: prey ATXN2, peptide TLNPNAKEFNPRSFSQ, A = wild type.
Setting [14] is: prey ATXN2, peptide KSTLNPNAKEFNPRSF, F = wild type.
[15] abbreviates: prey ATXN2, peptide TLNPNAKEFNPRSFSQ, T = wild type.
Where [16] appears, read: prey ATXN2, peptide TLNPNAKEFNPRSFSQ, E = wild type.
[17] abbreviates: prey ATXN2, peptide TLNPNAKEFNPRSFSQ, R = wild type.

As to KSTLNPNAKEFNPRSF T3F (KSFLNPNAKEFNPRSF), where the note is “prey ATXN2, peptide KSTLNPNAKEFNPRSF, T = wild type”, the “DMS-derived PSSM value, position T3” value was 0.07157.
Take “TLNPNAKEFNPRSF(averaged) S13F (TLNPNAKEFNPRFF)”: the “DMS-derived PSSM value (averaged), position S13” value under setting [1] was 0.01382.
On to “TLNPNAKEFNPRSF(averaged) F9N (TLNPNAKENNPRSF)”, for which, under setting [2], the “DMS-derived PSSM value (averaged), position F9” value is listed as 0.04813.
KSTLNPNAKEFNPRSF A8L (KSTLNPNLKEFNPRSF): the “DMS-derived PSSM value, position A8” value (prey ATXN2, peptide KSTLNPNAKEFNPRSF, A = wild type) was found to be 0.
“TLNPNAKEFNPRSF(averaged) N3Q (TLQPNAKEFNPRSF)”: the “DMS-derived PSSM value (averaged), position N3” value under setting [3] stood at 0.0275.
On to “TLNPNAKEFNPRSF(averaged) S13K (TLNPNAKEFNPRKF)”, for which the “DMS-derived PSSM value (averaged), position S13” value under setting [1] turned out to be 0.003966.
Regarding “KSTLNPNAKEFNPRSF E10G (KSTLNPNAKGFNPRSF)”, the “DMS-derived PSSM value, position E10” value (prey ATXN2, peptide KSTLNPNAKEFNPRSF, E = wild type) was found to be 0.
For TLNPNAKEFNPRSFSQ L2Q (TQNPNAKEFNPRSFSQ), the “DMS-derived PSSM value, position L2” value under setting [4] is on record as 0.
For the substance “TLNPNAKEFNPRSF(averaged) N3G (TLGPNAKEFNPRSF)”, the “DMS-derived PSSM value (averaged), position N3” value under setting [3] came out at 0.
Consider “TLNPNAKEFNPRSF(averaged) P11M (TLNPNAKEFNMRSF)”, for which the “DMS-derived PSSM value (averaged), position P11” value under setting [5] stood at 0.00553.
KSTLNPNAKEFNPRSF K9L (KSTLNPNALEFNPRSF): under setting [6], the “DMS-derived PSSM value, position K9” value is given as 0.07486.
Turning to “TLNPNAKEFNPRSF(averaged) T1A (ALNPNAKEFNPRSF)”, the “DMS-derived PSSM value (averaged), position T1” value under setting [7] stood at 0.03742.
“KSTLNPNAKEFNPRSF P13M (KSTLNPNAKEFNMRSF)”: the “DMS-derived PSSM value, position P13” value under setting [8] is 0.
With “KSTLNPNAKEFNPRSF S15F (KSTLNPNAKEFNPRFF)”, the “DMS-derived PSSM value, position S15” value under setting [6] turned out to be 0.0234.
“TLNPNAKEFNPRSFSQ S15G (TLNPNAKEFNPRSFGQ)”: the “DMS-derived PSSM value, position S15” value under setting [9] was found to be 0.2429.
Take “TLNPNAKEFNPRSF(averaged) L2S (TSNPNAKEFNPRSF)”: the “DMS-derived PSSM value (averaged), position L2” value (prey ATXN2, TLNPNAKEFNPRSF(averaged) over the two overlapping peptides, L = wild type) came to 0.
TLNPNAKEFNPRSFSQ N5P (TLNPPAKEFNPRSFSQ): the “DMS-derived PSSM value, position N5” value under setting [10] came to 8.238e-5.
As to “KSTLNPNAKEFNPRSF P13Y (KSTLNPNAKEFNYRSF)”, the “DMS-derived PSSM value, position P13” value under setting [8] worked out at 0.004042.
On to TLNPNAKEFNPRSFSQ P4W (TLNWNAKEFNPRSFSQ), for which the “DMS-derived PSSM value, position P4” value under setting [11] was determined as 0.
As to “KSTLNPNAKEFNPRSF R14M (KSTLNPNAKEFNPMSF)”, the “DMS-derived PSSM value, position R14” value (prey ATXN2, peptide KSTLNPNAKEFNPRSF, R = wild type) stood at 0.00585.
With “TLNPNAKEFNPRSFSQ N10Q (TLNPNAKEFQPRSFSQ)”, the “DMS-derived PSSM value, position N10” value under setting [10] came out at 0.09458.
Take KSTLNPNAKEFNPRSF N5F (KSTLFPNAKEFNPRSF): the “DMS-derived PSSM value, position N5” value under setting [12] is 0.
As to KSTLNPNAKEFNPRSF N7L (KSTLNPLAKEFNPRSF), the “DMS-derived PSSM value, position N7” value under setting [12] is given as 0.04259.
On to “TLNPNAKEFNPRSFSQ F14A (TLNPNAKEFNPRSASQ)”, for which the “DMS-derived PSSM value, position F14” value (prey ATXN2, peptide TLNPNAKEFNPRSFSQ, F = wild type) is reported as 0.01754.
Turning to TLNPNAKEFNPRSFSQ A6L (TLNPNLKEFNPRSFSQ), the “DMS-derived PSSM value, position A6” value under setting [13] was found to be 0.
“KSTLNPNAKEFNPRSF F16G (KSTLNPNAKEFNPRSG)”: the “DMS-derived PSSM value, position F16” value under setting [14] is on record as 0.
On to TLNPNAKEFNPRSFSQ T1L (LLNPNAKEFNPRSFSQ), for which the “DMS-derived PSSM value, position T1” value under setting [15] amounted to 0.1166.
For the substance TLNPNAKEFNPRSFSQ E8G (TLNPNAKGFNPRSFSQ), under setting [16], the “DMS-derived PSSM value, position E8” value was determined as 0.
With “TLNPNAKEFNPRSF(averaged) E8Y (TLNPNAKYFNPRSF)”, the “DMS-derived PSSM value (averaged), position E8” value (prey ATXN2, TLNPNAKEFNPRSF(averaged) over the two overlapping peptides, E = wild type) is reported as 0.02496.
Take “TLNPNAKEFNPRSFSQ R12A (TLNPNAKEFNPASFSQ)”: the “DMS-derived PSSM value, position R12” value under setting [17] came to 0.004965.
“TLNPNAKEFNPRSF(averaged) F9M (TLNPNAKEMNPRSF)”: under setting [2], the “DMS-derived PSSM value (averaged), position F9” value stood at 0.
With KSTLNPNAKEFNPRSF L4E (KSTENPNAKEFNPRSF), the “DMS-derived PSSM value, position L4” value (prey ATXN2, peptide KSTLNPNAKEFNPRSF, L = wild type) was 0.
“TLNPNAKEFNPRSFSQ R12G (TLNPNAKEFNPGSFSQ)”: the “DMS-derived PSSM value, position R12” value under setting [17] stood at 0.02158.
With “TLNPNAKEFNPRSF(averaged) T1V (VLNPNAKEFNPRSF)”, the “DMS-derived PSSM value (averaged), position T1” value under setting [7] was determined as 0.1224.
With TLNPNAKEFNPRSFSQ T1F (FLNPNAKEFNPRSFSQ), under setting [15], the “DMS-derived PSSM value, position T1” value stood at 0.0001584.
Regarding “TLNPNAKEFNPRSF(averaged) N10W (TLNPNAKEFWPRSF)”, the “DMS-derived PSSM value (averaged), position N10” value under setting [3] is 0.1093.
Take “TLNPNAKEFNPRSF(averaged) F9H (TLNPNAKEHNPRSF)”: the “DMS-derived PSSM value (averaged), position F9” value under setting [2] came out at 0.
“KSTLNPNAKEFNPRSF F11T (KSTLNPNAKETNPRSF)”: the “DMS-derived PSSM value, position F11” value under setting [14] amounted to 0.
For the substance TLNPNAKEFNPRSFSQ A6S (TLNPNSKEFNPRSFSQ), the “DMS-derived PSSM value, position A6” value under setting [13] was found to be 0.08307.
For “TLNPNAKEFNPRSFSQ P11M (TLNPNAKEFNMRSFSQ)”, the “DMS-derived PSSM value, position P11” value under setting [11] was 0.01106.
For the substance TLNPNAKEFNPRSFSQ E8M (TLNPNAKMFNPRSFSQ), the “DMS-derived PSSM value, position E8” value under setting [16] was found to be 0.03925.
Consider TLNPNAKEFNPRSFSQ E8L (TLNPNAKLFNPRSFSQ), for which the “DMS-derived PSSM value, position E8” value under setting [16] came to 0.
For “KSTLNPNAKEFNPRSF P13I (KSTLNPNAKEFNIRSF)”, under setting [8], the “DMS-derived PSSM value, position P13” value was 0.01276.
For the substance “TLNPNAKEFNPRSF(averaged) N5D (TLNPDAKEFNPRSF)”, the “DMS-derived PSSM value (averaged), position N5” value under setting [3] is recorded as 0.03885.
As for “TLNPNAKEFNPRSF(averaged) P4E (TLNENAKEFNPRSF)”, the “DMS-derived PSSM value (averaged), position P4” value under setting [5] is listed as 0.0008442.
With “KSTLNPNAKEFNPRSF S15E (KSTLNPNAKEFNPREF)”, the “DMS-derived PSSM value, position S15” value under setting [6] is 0.02092.
In the case of “TLNPNAKEFNPRSF(averaged) S13T (TLNPNAKEFNPRTF)”, under setting [1], the “DMS-derived PSSM value (averaged), position S13” value was 0.05607.
For the substance “KSTLNPNAKEFNPRSF F16S (KSTLNPNAKEFNPRSS)”, the “DMS-derived PSSM value, position F16” value under setting [14] is on record as 0.02635.
Take “KSTLNPNAKEFNPRSF P13N (KSTLNPNAKEFNNRSF)”: the “DMS-derived PSSM value, position P13” value under setting [8] was determined as 0.004405.
On to “TLNPNAKEFNPRSFSQ S15T (TLNPNAKEFNPRSFTQ)”, for which, under setting [9], the “DMS-derived PSSM value, position S15” value turned out to be 0.0005737.
With “TLNPNAKEFNPRSF(averaged) P4T (TLNTNAKEFNPRSF)”, the “DMS-derived PSSM value (averaged), position P4” value under setting [5] is given as 0.01555.
“TLNPNAKEFNPRSFSQ P11W (TLNPNAKEFNWRSFSQ)”: the “DMS-derived PSSM value, position P11” value under setting [11] was determined as 0.02291.
Take TLNPNAKEFNPRSFSQ T1H (HLNPNAKEFNPRSFSQ): the “DMS-derived PSSM value, position T1” value under setting [15] is recorded as 0.01756.
Regarding “KSTLNPNAKEFNPRSF F11G (KSTLNPNAKEGNPRSF)”, under setting [14], the “DMS-derived PSSM value, position F11” value amounted to 0.
Turning to TLNPNAKEFNPRSFSQ L2F (TFNPNAKEFNPRSFSQ), the “DMS-derived PSSM value, position L2” value under setting [4] came out at 0.1032.
Take “KSTLNPNAKEFNPRSF N12Q (KSTLNPNAKEFQPRSF)”: under setting [12], the “DMS-derived PSSM value, position N12” value was 0.02863.
Consider KSTLNPNAKEFNPRSF K9G (KSTLNPNAGEFNPRSF), for which the “DMS-derived PSSM value, position K9” value under setting [6] was determined as 0.006369.
In the case of KSTLNPNAKEFNPRSF K9T (KSTLNPNATEFNPRSF), under setting [6], the “DMS-derived PSSM value, position K9” value was 0.02286.
Take “KSTLNPNAKEFNPRSF F11S (KSTLNPNAKESNPRSF)”: the “DMS-derived PSSM value, position F11” value under setting [14] was 0.
For “KSTLNPNAKEFNPRSF S15N (KSTLNPNAKEFNPRNF)”, the “DMS-derived PSSM value, position S15” value under setting [6] turned out to be 0.1002.
As to “KSTLNPNAKEFNPRSF F16L (KSTLNPNAKEFNPRSL)”, the “DMS-derived PSSM value, position F16” value under setting [14] was determined as 0.2967.
